Assay results reported in ChEMBL document CHEMBL2396561 (J Med Chem, 2013).
Converted amounts (≈) assume the structure as drawn.

How the values were obtained:
Pseudomonas aeruginosa = experiment: Antibacterial activity against Pseudomonas aeruginosa ATCC 27853 expressing FabI, FabV, FabK assessed as growth inhibition after 18 to 24 hrs by microdilution method; type: functional
[1] = Cytotoxicity against human 786-O cells assessed as cell survival after 72 hrs by CellTiter-96 aqueous one solution assay; type: cell-based, 786-0; conditions: read-out: LC50
[2] = system: Francisella tularensis subsp. tularensis SCHU S4; experiment: Antibacterial activity against Francisella tularensis SCHU S4 expressing FabI assessed as growth inhibition after 42 to 48 hrs by microdilution method; type: functional
[3] = molecular target: T1, Enoyl-[acyl-carrier-protein] reductase [NADH] (Francisella tularensis subsp. tularensis (strain SCHU S4 / Schu 4), UniProt Q5NGQ3)
T1 sequence (Q5NGQ3 whole entry): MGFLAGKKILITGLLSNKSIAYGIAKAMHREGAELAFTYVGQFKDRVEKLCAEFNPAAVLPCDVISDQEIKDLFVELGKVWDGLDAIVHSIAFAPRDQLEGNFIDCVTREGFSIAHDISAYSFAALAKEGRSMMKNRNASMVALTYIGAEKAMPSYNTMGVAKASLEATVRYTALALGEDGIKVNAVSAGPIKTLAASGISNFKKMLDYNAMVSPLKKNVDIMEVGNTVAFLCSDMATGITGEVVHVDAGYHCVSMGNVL

Bacillus anthracis = experiment: Antibacterial activity against Bacillus anthracis Ames expressing FabI assessed as growth inhibition after 18 to 24 hrs by microdilution method; type: functional
Staphylococcus aureus = experiment: Antibacterial activity against Staphylococcus aureus ATCC 29213 expressing FabI assessed as growth inhibition after 18 to 24 hrs by microdilution method; type: functional
Escherichia coli = experiment: Antibacterial activity against Escherichia coli ATCC 25922 expressing FabI assessed as growth inhibition after 18 to 24 hrs by microdilution method; type: functional
[4] = Cytotoxicity against mouse Neuro2a cells assessed as cell survival after 72 hrs by CellTiter-96 aqueous one solution assay; type: cell-based, N2a; conditions: read-out: LC50
[5] = molecular target: T1, Enoyl-[acyl-carrier-protein] reductase [NADH]; remark: listed apart in the source
[6] = molecular target: T1, Enoyl-[acyl-carrier-protein] reductase [NADH]; remark: listed apart in the source
[7] = Solubility of the compound in DMSO at 125 uM; type: physicochemical

| SMILES | MIC (Pseudomonas aeruginosa) [µg/mL] | CC50 at 72 h [1] [µM] | MIC [2] | IC50 [3] [µM] | MIC (Bacillus anthracis) [µg/mL] | MIC (Staphylococcus aureus) [µg/mL] | MIC (Escherichia coli) [µg/mL] | CC50 at 72 h [4] [µM] | IC50 [6] [µM] | also measured |
| --- | --- | --- | --- | --- | --- | --- | --- | --- | --- | --- |
| O=C(CC1CCCCC1)N1CCC(c2nc(-c3ccc(S(=O)(=O)N4CCCC4)cc3)no2)CC1 | > 52 | 7 | > 52 µg/mL | 8 | > 26 | > 52 | > 52 | 8 | – | Ki [5]: 7 µM |
| O=C(C(=O)N1CC=C(c2ccccc2)CC1)c1c[nH]c2ccccc12 | > 413 | 63 | 39 µM | 3 | > 208 | > 413 | > 413 | 70 | 12 | – |
| O=C(COc1ccccc1)NCCSc1c[nH]c2ccccc12 | > 343 | 30 | 67 µM | 20 | 43 (≈ 132 µM) | 86 (≈ 263 µM) | > 343 | 30 | – | Ki [5]: 3.4 µM; solubility [7]: soluble |
| CN(Cc1ccccc1N)C(=O)c1cc2ccccc2o1 | – | – | – | – | – | – | – | – | 45 | – |
| N#Cc1ccc(Oc2ccccc2O)c(F)c1 | – | – | – | – | – | – | – | – | 11 | – |
| NC(=O)c1ccc(Oc2ccccc2O)c(F)c1 | – | – | – | – | – | – | – | – | 6 | – |
| CN(Cc1ccc(C(C)(C)C)cc1)Cc1cccc2ccccc12 [BUTENAFINE] | – | – | – | – | – | – | – | – | 76 | – |
| O=C(O)c1cn(C2CC2)c2cc(N3CCNCC3)c(F)cc2c1=O [CIPROFLOXACIN] | 1 (≈ 3.02 µM) | – | 0.125 µg/mL | – | 0.0312 (≈ 0.0943 µM) | 2 (≈ 6.04 µM) | 0.0312 (≈ 0.0943 µM) | – | – | – |
| Nc1ccn([C@@H]2O[C@H](CO)[C@@H](O)[C@@H]2O)c(=O)n1 [CYTARABINE] | – | – | – | – | – | – | – | – | 59 | – |
| O=c1oc2ccccc2c(O)c1Cc1c(O)c2ccccc2oc1=O [DICUMAROL] | – | – | – | – | – | – | – | – | 47 | – |
| CCc1ccc(CCOc2ccc(CC3SC(=O)NC3=O)cc2)nc1 (stereo not drawn) [PIOGLITAZONE] | – | – | – | – | – | – | – | – | 79 | – |
| Oc1cc(Cl)ccc1Oc1ccc(Cl)cc1Cl [TRICLOSAN] | – | 4.2 | – | 1.3 | – | – | – | 5.4 | – | – |
